A melting point compilation (Tetko et al.; mined from patent text by program, amines drawn as free bases though some values may be those of a salt)

| SMILES | melting point [°C] |
| --- | --- |
| O=C(Nc1ccccc1)N1C(=O)C2(CCCCC2)NC12CCCCC2 | 129 to 130 |
| CCN(CC)c1nc(N)nc(-c2cc(Cl)ccc2Cl)n1 | 137 to 138 |
| CN(C)C(=O)Sc1cc(SC(=O)N(C)C)cc(C(N)=O)c1 | 264 to 265 |
| O=C1CC(c2cccs2)CN1 (stereo unspecified) | 75 to 76.5 |
| CCOc1ncc(C(C)=O)cc1C(=O)Nc1c(C(N)=O)nn(CC2CC2)c1CC | 238 to 240 |
| Cc1ccc2c(c1)oc1c(C(=O)NC34CC5CC(CC(C5)C3)C4)nn(-c3ccc(Cl)cc3Cl)c12 | 210 to 212 |
| CS(=O)(=O)c1ccc(-c2cnn(CC(F)(F)F)c(=O)c2N)cc1 | > 260 |
| CS(=O)(=O)c1ccc(-n2nc(CNC(=O)NC3CCCCCC3)cc2-c2ccccc2)cc1 | 104 to 110 |
| CCOC(=O)/C=C/c1ccc(OCCOC)cc1Oc1ncc(C(F)(F)F)cc1Cl | 78.2 to 78.5 |
| Cc1ncn(-c2nccc3[nH]c(=O)ccc23)c1C | 256 to 258 |
| O=[N+]([O-])c1cc(Cl)c(Cl)cc1N[C@H]1C=C[C@@H](CO)C1 | 94.5 to 96.5 |
| O=c1ccn(CCCO)c(CO)c1O | 138 to 139 |
| OCc1nnc2n1-c1ccc(Cl)cc1C(c1ccccc1Cl)=NC2 | 236 to 239 |
| COc1ccc(N2CCN(c3c(C)c(C)c4c(c3C)C(c3ccco3)C(C)(C)O4)CC2)cc1 (stereo unspecified) | 110 to 111 |
| CCOC(=O)c1cccc2c1Cc1c-2[nH]c2ccc(Br)cc12 | 198 to 200 |
| O=C1C(Cc2ccccc2)C(c2ccccc2)=Nc2ccccc2N1Cc1ccccc1 (stereo unspecified) | 173 to 174 |
| CCN(CC)c1nc2[nH]c3c(c(=O)n2n1)SCCC3 | 308 to 310 |
| CC(C)(C)OC(=O)N1CCN(Cc2ccc(NC(=O)Oc3ccccc3)c(C(F)(F)F)c2)CC1 | 143 to 147 |
| CC(C)(C)OC(=O)c1cc([N+](=O)[O-])cc([N+](=O)[O-])c1N(CCO)CCCl | 106 to 107 |
| C#Cc1c2ccccc2nc2c(OC)ccc(OC)c12 | 155 to 157 |
| CC(CCc1ccc(F)cc1)(Cn1ccnc1)Sc1cc(Cl)ccc1Cl (stereo unspecified) | 148 |
| COC(=O)C(C)Oc1ccc(Oc2ccc3cc(Cl)cc(Cl)c3n2)cc1 (stereo unspecified) | 70 |
| CCOC(=O)CCC1(NC(=O)c2ccc3ccccc3c2)C(=O)N(c2ccccc2)c2cc(OCC)ccc21 (stereo unspecified) | 195 to 196 |
| Cc1cccc(C2=C(c3ccc(S(C)(=O)=O)cc3)OC3(CCCCC3)C2=O)c1 | 154 to 155 |

| SMILES | melting point [°C] |
| --- | --- |
| CCCCc1oc2ccccc2c1C(=O)NCc1ccc2c(Br)c(O)ccc2c1 | 192 to 193 |
| Cc1ccc(-c2nnn(C(c3ccccc3)(c3ccccc3)c3ccccc3)n2)cc1 | 172 to 175 |
| Cc1nnc(N2N=C(c3ccc([N+](=O)[O-])cc3)c3cc4c(cc3CC2C)OCO4)s1 (stereo unspecified) | 101 to 102 |
| CCCCCCCCCCCCc1cc(N)no1 | 79.5 to 81 |
| CC(=O)OCC(=O)CS(=O)(=O)C(c1ccc(Cl)cc1)c1ccc(Cl)cc1 | 57 to 60 |
| O=C(c1ccccc1)c1ccc(C(=O)N2Cc3ccccc3Oc3ccccc32)cc1 | 103 to 106 |
| CC(C)(C)c1cc(C=C2SC(=S)N(N)C2=O)ccc1O | > 225 |
| O=S(=O)(c1ccc(O)cc1)N(CC(F)(F)F)c1ccc(O)cc1 | 172 to 173 |
| COc1cc(CCC(=O)CC(=O)c2ccc(F)cc2)ccc1O | 56 to 57 |
| CCn1cc(C(=O)NCc2ccc(Cl)cc2)c(=O)c2cc(C#CCOC(=O)CCC(=O)O)sc21 | 180 to 182 |
| NS(=O)(=O)c1ccc(-c2cc(-c3nc(-c4ccc(F)c(F)c4)cc(C(F)(F)F)n3)ccn2)s1 | 281 |
| CC(=O)c1cn(Cc2ccc(F)cc2)c(=O)n(Cc2ccc(F)cc2)c1=O | 134 to 135 |
| Cc1cc(Cl)cc2c1OCCCC2=O | 56 to 58 |
| CCOC(=O)/C=C(\c1ccc(F)cc1)c1cc(OC)c(OC)c(OC)c1 | 133 to 135 |
| O=C(Nc1ccc(Oc2ccnc(NCC3OCCO3)n2)c2ccccc12)c1cc(F)cc(N2CCCCC2)c1 | 96 to 98 |
| CC(C)CNc1c([N+](=O)[O-])cnc2ccccc12 | 114 to 118 |
| C=C1CC2(CN3CCC2CC3)SC1C (stereo unspecified) | 164 to 168 |
| O=S1(=O)CCN(CCCN2CCc3sc(Nc4ncc(F)cn4)nc3-c3c[nH]nc32)CC1 | 272 to 273 |
| S=C1Nc2cc(Br)ccc2N2CCc3cccc1c32 | 196 to 197 |
| CN(C(=O)C(F)(F)F)C1(C)CN(c2cc3c(cc2F)c(=O)c(C(=O)O)cn3C2CC2)C1 | 210 to 215 |
| COc1cc(Cc2cnc(CCCOc3cccc(CN4CCCCC4)c3)[nH]c2=O)ccn1 | 93 to 94 |
| Cc1ccc(-c2cn(C)cc(-c3ccccc3)c2=O)cc1Br | 168 to 170 |
| CCOc1ncnc(OCC)c1NC(N)=S | 212 |
| CCCCC(CC)CNCCCCOc1ccc2ccccc2c1 (stereo unspecified) | 94 |

The remaining lines, values ahead:

| melting point [°C] | SMILES |
| --- | --- |
| 145 to 147 | CCOC(=O)c1cc(O)c(C(=O)c2ccc(C)cc2)c([N+](=O)[O-])c1 |
| 172 to 174 | COC1=NS(=O)(=O)N=C1NCCCCC#CCN(C)C |
| 135 to 137 | COc1ccc(/C=C/C(=O)Nc2ccccc2C(=O)OCC(=O)NCC(C)(C)SN=O)cc1OC |
| 199 | O=P(O)(O)C(O)(CC1(c2ccc(Cl)cc2)C=CN(c2ccccc2)N1)P(=O)(O)O (stereo unspecified) |
| 105 to 106 | CCOC(=O)NN1CCN(CCCCC(=O)c2ccccc2)CC1 |
| 75 to 77 | O=C(NCCOc1ccc(CC(Sc2ccccc2)C(=O)O)cc1)c1ccc(-c2ccccn2)cc1 (stereo unspecified) |
| 150 to 152 | CCOC(=O)c1csc(-c2ccc3nc(CC(C)C)c(CN)c(-c4ccc(C)cc4)c3c2)n1 |
| 52 to 53 | N#CCc1ccc(F)cc1I |
| 101 | CCCCn1c(=O)n(CCC(C)(O)C#CCN(CCC)CCC)c(=O)c2c1ncn2CCC (stereo unspecified) |
| 159 to 160 | O=C1CCCc2nc3sccc3c(NCc3ccccc3)c21 |
| 112 | O=C1C=C(c2ccc(Cl)c(Cl)c2)C(=O)O1 |
| 115 to 118 | O=C1N(C(c2ccccc2)c2ccccc2)c2ccccc2C1(O)c1cc2c(cc1O)OCCCO2 (stereo unspecified) |
| 93 to 94 | C#CC(Oc1cc(C(=O)OC)cc(OC)c1OC)C1CC1 (stereo unspecified) |
| > 300 | CCNc1ccc2c(c1)CN(c1c(F)cc3c(=O)c(C(=O)O)cn4c3c1OCC4C)C2 (stereo unspecified) |
| 235 to 236 | N#Cc1ccc2c(c1)C(=O)c1ccccc1CN2 |
| 112 to 113 | CN(C)Cc1cc(C(=O)c2ccc(F)cc2)cc(C(C)(C)C)c1O |
| 148 to 149 | O=C(NCC1CCOCC1)Nc1ccc(C(F)(F)F)cc1 |
| 74 to 78 | O=c1ccnc(NCCCN(Cc2cccc(Cl)c2)c2ccccn2)[nH]1 |
| > 200 | N#Cc1c(Cl)[nH]c(-c2ccc(Cl)c(Cl)c2)c1Cl |
| 85.5 | COc1c(-c2ccccc2)c2ccc(-c3ccc(C(C)C)cc3)cc2oc1=O |
| 159 to 161 | COc1ccccc1N1CCN(C(=O)Nc2cc3ccccc3nc2OC)CC1 |
| 156 | COCC(=O)N[C@H]1CC[C@H](CCN2CCC(c3cccc4c3CCO4)CC2)CC1 |
| 133 to 136 | CC(=O)c1cc(C(=O)OCc2ccco2)c(C2=NC(C)(C(C)C)C(=O)N2)nc1C (stereo unspecified) |
| 175 | Cc1cccc(NC(=O)NCC(=O)N(c2ccccc2)C(C(=O)OC(C)(C)C)C(=O)OC(C)(C)C)c1 |
| 115 to 122 | CCNc1nc(-c2ccccc2)c(-c2ccccc2)nc1Cl |
| 46 to 53 | CCOC(=O)C(CC)C(O)(c1ccccc1)c1ccc(O)cc1 (stereo unspecified) |
| 163 to 164 | NNC(=O)C(Cc1cccs1)NC(=O)[C@H](Cc1cccc2ccccc12)NC(=O)OCc1ccccc1 (mixture of isomers) |

| melting point [°C] | SMILES |
| --- | --- |
| 160 | N#Cc1c(-c2ccccc2)sc2c1CNCC2c1ccccc1 (stereo unspecified) |
| 185 to 186 | Clc1cccc(-c2n[nH]cc2-c2ccnc(NCCc3ccccc3)c2)c1 |
| 304 to 305 | Oc1cnc2cc(F)ccc2n1 |
| 130 to 133 | CCOC(=O)CSc1ccc2nncn2n1 |
| 147 to 148 | CN(C)c1ccc(C(NCCO)C(O)c2ccccc2)cc1 (stereo unspecified) |
| 87 to 89 | CCOC(=NC(=O)CCl)N1Cc2ccccc2-c2ccccc2C1 |
| 107 to 108 | COc1ccc2c(c1OC)CCC(C#N)C2C#N (stereo unspecified) |
| 194 to 197 | CN(C)C(=O)C1(C)CN(C(=O)Nc2ccc(Cl)cc2)N=C1c1ccc(Cl)cc1 (stereo unspecified) |
| 148 to 150 | NS(=O)(=O)c1cc2c(s1)CCC(=O)C2 |
| 133 | CCCCCCCCSc1nc(Nc2cc(C)c(O)c(C(C)(C)C)c2)nc(NC2CC(C)(C)NC(C)(C)C2)n1 |
| 161 to 163 | Clc1ccc(NC2CCCCC2)nn1 |
| 121 | CCCCCCCCC#CCC#CCC#CCCCC(=O)Nc1ccc(O)cc1 |
| 47 to 48 | Cc1ccccc1CCOCC(=O)O |
| 160 to 162 | CC(O)c1ccc(N)c(S(N)(=O)=O)c1 (stereo unspecified) |
| 214 to 217 | CCn1ncnc1COc1nn2c(-c3ccccc3F)nncc2c1-c1ccncc1 |
| 112 | CCn1c(=O)n(CCCCC(C)=O)c(=O)c2cnn(C)c21 |
| 148 to 152 | Nc1ncc(-c2ccccc2)nc1Br |
| 95 to 96 | Cc1ccc(S(=O)(=O)NC(COS(=O)(=O)c2ccc(C)cc2)Cc2ccccc2)cc1 (stereo unspecified) |
| 221 to 223 | CCOC1=C(C(=O)N(C)C)S(=O)(=O)N=C1N |
| 138 to 142 | CCCCC1(c2cccc(O)c2)CCCCN(C)C1=O (stereo unspecified) |
| 210 to 211 | CC(=O)c1c[nH]c(-c2ccncc2)c1C |
| 199 to 200 | Cc1ccc(C(=O)c2cc3cc(OCc4ccccc4)ccc3[nH]2)cc1 |
| 132 to 135 | CC(C)c1cccc(C(C)C)c1OC(=O)NP(=O)(Oc1ccccc1)Oc1ccccc1 |
| 108 to 110 | CC(C)(C)c1cc(C(=O)c2cccs2)cc(CN(CCO)CCO)c1O |
| 65 to 68 | CCSC(C)(C)C(=O)CC(=O)Nc1cc(NC(=O)C(CC)Oc2ccc(C(C)(C)CC)cc2C(C)(C)CC)ccc1Cl (stereo unspecified) |
| 103 to 104 | COC(=O)C(C)=Cc1ccc(O)cc1 |
